Measured values: patent publication US20090012172A1, “Cosmetic/pharmaceutical compositions comprising retinoids and anti-irritants and treatment of keratinization disorders therewith” (GALDERMA RESEARCH & DEVELOPMENT, priority 2005, published 2009)
Entries after “also recorded” stand apart in the source; their conditions may differ.

Key:
ear of the BALB/c mouse [1] = experiment: Study of tolerance of the formulation of Example 4 (non-split treatment), ear thickness; assay type: in vivo; conditions: adapalene and anti-irritant in the same formulation
Procedure: (§1) The treatment consists of a daily topical application (20 μl) of anti-irritant, formulated in an aqueous/alcoholic vehicle (50% ethanol and 50% water by volume), on the internal face of the right ear of BALB/c mice divided into 15 groups (female mice approximately 9 weeks old), followed by a topical application (20 μl) of Differin® gel (reference gel comprising 0.1% adapalene) at the rate of one application of each formulation per day for 6 days.
(§2) Evaluation is carried out by measurements of the thickness of the ear by means of the Oditest and by clinical observation of the animals from the 2nd to 19th day.
A study of tolerance is carried out according to the protocol of Example 2 with the formulation of Example 4. However, the present case, in contrast to Example 2, relates to a treatment which is not split since the adapalene and the anti-irritant are present in the same formulation.

ear of the BALB/c mouse [2] = experiment: Tolerance study: anti-irritant in preventive treatment before topical Differin gel, ear thickness (edema); assay type: in vivo; conditions: anti-irritant applied before Differin gel
Procedure: The goal of the present study is to compare the irritant power of a reference gel, comprising 0.1% adapalene, when this treatment is preceded or not preceded by treatment with an anti-irritant.
as §1, §2

[3] = test system: skin of the back of the Rhino mouse (comedones); experiment: Comedolytic activity of Differin gel alone or preceded by anti-irritant on the Rhino mouse; assay type: in vivo, RHINO FVB/N RJ-hr (Rhino) mouse
Procedure: The goal of the present study is to compare the comedolytic activity of Differin® gel (reference gel comprising 0.1% adapalene) whether this treatment is preceded or not preceded by a treatment with an anti-irritant.
The treatment consists of a daily topical application of an aqueous/alcoholic vehicle (ethanol/water 50:50) comprising the anti-irritant potassium salt of 18β-glycyrrhetinic acid, followed 30 minutes later by an application of Differin® gel, on the skin of the back of the RHINO FVB/N RJ-hr^th (Rhino) mouse for 18 days.

SMILES	anti-irritant effect (in words) (ear of the BALB/c mouse [1])	effect on the irritation caused by Differin gel (in words) (ear of the BALB/c mouse [2])	number of comedones per centimeter ([3]; back of Rhino mice after 18 days of daily topical treatment)	effect on the comedolytic activity of Differin gel (in words) ([3]; split treatment, anti-irritant 30 minutes before Differin gel, 18 days)	effect on the irritation caused by Differin gel (in words) (ear of the BALB/c mouse [2]; listed as enoxolone)
CC1(C)[C@@H](O)CC[C@]2(C)[C@H]3C(=O)C=C4[C@@H]5C[C@@](C)(C(=O)[O-])CC[C@]5(C)CC[C@@]4(C)[C@]3(C)CC[C@@H]12.[K+] [Potassium salt of 18β-glycyrrhetinic acid]	appears to be an effective anti-irritant	effective in reducing the irritation due to adapalene; also recorded: significantly reduces the irritation	statistically equivalent to that of groups 1 and 3	does not reduce the comedolytic activity	
CC1(C)[C@@H](O)CC[C@]2(C)[C@H]3C(=O)C=C4[C@@H]5C[C@@](C)(C(=O)O)CC[C@]5(C)CC[C@@]4(C)[C@]3(C)CC[C@@H]12 [Enoxolone, 18β-Glycyrrhetinic acid]		virtually no effect			does not have an effect on the irritation due to retinoids
